In ChEMBL document CHEMBL1201862, “PubChem BioAssay data set” (2004):
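Tested at 5 concentrations; 48 h exposure; 96-well plates; endpoints linearly interpolated, else capped at highest concentration. GI50 is the concentration that inhibits growth by half.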 Active and inactive are the calls of the source. No stated cut-off is given here; in the data, active = GI50 up to about 1.1 µM and inactive = higher.

Experiments:
Assay in all cases: growth of human tumour cells (NCI), 48 h
HCT-116 = system: HCT-116
U-251 = system: U-251
SK-OV-3 = system: SK-OV-3
KM-20L2 = system: KM-20L2
A549 = system: A549
OVCAR-8 = system: OVCAR-8
UACC-257 = system: UACC-257
COLO 205 = system: COLO 205
SK-MEL-5 = system: SK-MEL-5
HT-29 = system: HT-29
SR = system: SR
DMS-114 = system: DMS-114
SW-620 = system: SW-620
SNB-75 = system: SNB-75
CCRF-CEM = system: CCRF-CEM
SF-539 = system: SF-539
UO-31 = system: UO-31
HCT-15 = system: HCT-15
OVCAR-5 = system: OVCAR-5
MCF7 = system: MCF7

SMILES	GI50 (HCT-116)	GI50 (U-251)	GI50 (SK-OV-3)	GI50 (KM-20L2)	GI50 (A549)	GI50 (OVCAR-8)	GI50 (UACC-257)	GI50 (COLO 205)	GI50 (SK-MEL-5)	GI50 (HT-29)	GI50 (SR)	GI50 (DMS-114)	GI50 (SW-620)	GI50 (SNB-75)	GI50 (CCRF-CEM)	GI50 (SF-539)	GI50 (UO-31)	GI50 (HCT-15) [µM]	GI50 (OVCAR-5)	GI50 (MCF7)
O=C1C(Cl)N(c2cccc(Cl)c2)C1c1c[nH]c2ccccc12 (stereo not given)	> 100 µM (inactive)	> 100 µM (inactive)	> 100 µM (inactive)	> 100 µM (inactive)	> 100 µM (inactive)	> 100 µM (inactive)	> 100 µM (inactive)	> 100 µM (inactive)	> 100 µM (inactive)	> 100 µM (inactive)	> 100 µM (inactive)	> 100 µM (inactive)	> 100 µM (inactive)	> 100 µM (inactive)	> 100 µM (inactive)	> 100 µM (inactive)	> 100 µM (inactive)			
CCOC(=O)C(Cc1ccccc1)NC(=O)OC(C)(C)C (stereo not given)	> 100 µM (inactive)	> 100 µM (inactive)	> 100 µM (inactive)		> 100 µM (inactive)	> 100 µM (inactive)	> 100 µM (inactive)	> 100 µM (inactive)		> 100 µM (inactive)		> 100 µM (inactive)	> 100 µM (inactive)	> 100 µM (inactive)	> 100 µM (inactive)	> 100 µM (inactive)	> 100 µM (inactive)	> 100	> 100 µM (inactive)	
COc1ccc(-c2cc(-c3cc(OC)c(OC)c(OC)c3)cc(-c3cc4ccccc4oc3=O)n2)cc1	4.48 µM (inactive)	3.54 µM (inactive)	3.83 µM (inactive)		15 µM (inactive)	4.38 µM (inactive)	16.7 µM (inactive)	> 100 µM (inactive)	5.97 µM (inactive)	9.4 µM (inactive)	9.79 µM (inactive)		25.2 µM (inactive)	2.51 µM (inactive)	> 100 µM (inactive)	2.76 µM (inactive)	8.28 µM (inactive)	30.9		16.7 µM (inactive)
O=C(/C=C/c1cccc2ccccc12)c1ccccc1Cl	8.95 µM (inactive)	11.6 µM (inactive)	21.4 µM (inactive)	12.7 µM (inactive)	25.8 µM (inactive)	13.6 µM (inactive)	17.4 µM (inactive)	> 100 µM (inactive)	16.9 µM (inactive)	13.6 µM (inactive)	4.35 µM (inactive)	12 µM (inactive)	5.58 µM (inactive)	16.7 µM (inactive)	3.72 µM (inactive)	17.5 µM (inactive)	14.8 µM (inactive)	6.53		
Clc1cc2c(c(CSC3=NCN(CC4CC4)CN3)c1)OCOC2	18.5 µM (inactive)	19.6 µM (inactive)	24.6 µM (inactive)		22.8 µM (inactive)	26.9 µM (inactive)	16.2 µM (inactive)	13.6 µM (inactive)	17.7 µM (inactive)	20.3 µM (inactive)	15.2 µM (inactive)		20.5 µM (inactive)	18.4 µM (inactive)	5.35 µM (inactive)	20.3 µM (inactive)	12.7 µM (inactive)	21.5	21 µM (inactive)	20.8 µM (inactive)
Cc1ccc(NC(=O)CC(=O)n2nc(-c3ccccc3)c(/N=N/c3ccccc3Cl)c2-c2ccccc2)cc1	39.5 µM (inactive)	60.8 µM (inactive)	27 µM (inactive)	> 10 µM (inactive)	98.2 µM (inactive)	42.5 µM (inactive)	> 10 µM (inactive)	> 10 µM (inactive)	67.1 µM (inactive)	> 10 µM (inactive)	> 100 µM (inactive)	> 10 µM (inactive)	92 µM (inactive)	16.4 µM (inactive)	41.4 µM (inactive)	76.6 µM (inactive)	> 10 µM (inactive)	> 10	19.4 µM (inactive)	
COc1ccc2c(c1)CCN=C2Cc1cc(OC)c(OC)cc1CCCl	44.5 µM (inactive)	86.7 µM (inactive)	> 100 µM (inactive)		96.4 µM (inactive)	> 100 µM (inactive)	45.4 µM (inactive)	58.7 µM (inactive)	17.5 µM (inactive)	26.9 µM (inactive)	94.6 µM (inactive)		> 100 µM (inactive)	> 100 µM (inactive)	> 100 µM (inactive)	16.2 µM (inactive)	29.2 µM (inactive)		17.3 µM (inactive)	52.2 µM (inactive)
O=C1C=CC2=[N+]([O-])C(c3ccccc3)(c3ccccc3)/C(=N\c3ccccc3)C2=C1	1.97 µM (inactive)	2.5 µM (inactive)	17.8 µM (inactive)	2.34 µM (inactive)	15.4 µM (inactive)	1.75 µM (inactive)	2.38 µM (inactive)		14.2 µM (inactive)	2.41 µM (inactive)	0.269 µM (active)	1.85 µM (inactive)	1.91 µM (inactive)	3.22 µM (inactive)	0.407 µM (active)	6.85 µM (inactive)	2.21 µM (inactive)	2.03	16.4 µM (inactive)	
